According to patent US20100267636A1, “USE OF CYTOCHROME P450-METABOLIZED DRUGS AND GRF MOLECULES IN COMBINATION THERAPY” (THERATECHNOLOGIES INC., priority 2009, published 2010):

Assays:
[1] = Plasma PK of simvastatin and simvastatin acid with (Treatment A) and without (Treatment B) TH9507, two-way crossover studies; type: in vivo; conditions: human; for half-life / AUC(0-inf) / AUC(0-t) / Cmax / Tmax: both sexes, 80 mg
Experimental: […] […] N=58 healthy adult (male and female) subjects were enrolled. Dosing occurred in two groups. […] PK/statistics: PK parameters were calculated using standard noncompartmental approaches. […] The final ANOVA models included group, sequence, treatment, and period nested within group as fixed effects and subject nested within group-by-sequence as a random effect. The treatment-by-group term was excluded from the models for the groups combined, to be conservative.

[2] = Plasma PK of TH9507 in simvastatin studies (ELISA); type: in vivo, human
Experimental: 2 ml of TH9507 (1 mg/ml injectable solution) was administered by subcutaneous injection under fasting conditions once daily for 7 consecutive days (daily dose of 2 mg TH9507).
N=58 healthy adult (male and female) subjects were enrolled. Dosing occurred in two groups.
PK/statistics: PK parameters were calculated using standard noncompartmental approaches.

CYP3A = assay: Impact of TH9507 on CYP3A activity (simvastatin drug interaction studies); type: in vivo, human; conditions: 2 mg TH9507 days 1 to 7, 80 mg simvastatin as CYP3A substrate on Day 6
Description: The final ANOVA models included group, sequence, treatment, and period nested within group as fixed effects and subject nested within group-by-sequence as a random effect. The treatment-by-group term was excluded from the models for the groups combined, to be conservative.

[3] = both sexes, human, plasma, sc, 2 mg

CCC(C)(C)C(=O)O[C@H]1C[C@@H](C)C=C2C=C[C@H](C)[C@H](CC[C@@H]3C[C@@H](O)CC(=O)O3)[C@H]21 [Simvastatin, (1S,3R,7S,8S,8aR)-8-{2-[(2R,4R)-4-hydroxy-6-oxooxan-2-yl]ethyl}-3,7-dimethyl-1,2,3,7,8,8a-hexahydronaphthalen-1-yl 2,2-dimethylbutanoate, reference compound]
half-life ([1]; plasma, po, read-out: T1/2, Treatment B (converted)): 8.56 h
half-life ([1]; plasma, sc, read-out: T1/2, Treatment A (converted)): 7.62 h

CC/C=C/CC(=O)N[C@@H](Cc1ccc(O)cc1)C(=O)N[C@@H](C)C(=O)N[C@@H](CC(=O)O)C(=O)N[C@@H](C)C(=O)N[C@H](C(=O)N[C@@H](Cc1ccccc1)C(=O)N[C@H](C(=O)N[C@@H](CC(N)=O)C(=O)N[C@@H](CO)C(=O)N[C@@H](Cc1ccc(O)cc1)C(=O)N[C@@H](CCCNC(=N)N)C(=O)N[C@@H](CCCCN)C(=O)N[C@H](C(=O)N[C@@H](CC(C)C)C(=O)NCC(=O)N[C@@H](CCC(N)=O)C(=O)N[C@@H](CC(C)C)C(=O)N[C@@H](CO)C(=O)N[C@@H](C)C(=O)N[C@@H](CCCNC(=N)N)C(=O)N[C@@H](CCCCN)C(=O)N[C@@H](CC(C)C)C(=O)N[C@@H](CC(C)C)C(=O)N[C@@H](CCC(N)=O)C(=O)N[C@@H](CC(=O)O)C(=O)N[C@H](C(=O)N[C@@H](CCSC)C(=O)N[C@@H](CO)C(=O)N[C@@H](CCCNC(=N)N)C(=O)N[C@@H](CCC(N)=O)C(=O)N[C@@H](CCC(N)=O)C(=O)NCC(=O)N[C@@H](CCC(=O)O)C(=O)N[C@@H](CO)C(=O)N[C@@H](CC(N)=O)C(=O)N[C@@H](CCC(N)=O)C(=O)N[C@@H](CCC(=O)O)C(=O)N[C@@H](CCCNC(=N)N)C(=O)NCC(=O)N[C@@H](C)C(=O)N[C@@H](CCCNC(=N)N)C(=O)N[C@@H](C)C(=O)N[C@@H](CCCNC(=N)N)C(=O)N[C@@H](CC(C)C)C(N)=O)[C@@H](C)CC)C(C)C)[C@@H](C)O)[C@@H](C)CC [TH9507, (hexenoyl trans-3)hGRF(1-44)NH2]
Tmax ([2]; TH9507 2 mg s.c. once daily, day 6 samples, simvastatin studies, median): 9 min
AUC(0-inf) [2, 3]: 1.05 ng·h/mL
AUC(0-t) [2, 3]: 0.888 ng·h/mL
Cmax [2, 3]: 3.36 ng/mL
half-life [2, 3]: 8.4 min
impact on CYP3A activity (CYP3A): not significant

CCC(C)(C)C(=O)O[C@H]1C[C@@H](C)C=C2C=C[C@H](C)[C@H](CC[C@@H](O)C[C@@H](O)CC(=O)O)[C@H]21 [Simvastatin Acid, simvastatin acid]
AUC(0-inf) ([1]; in vivo, po): 46.8 ng·h/mL
AUC(0-t) ([1]; in vivo, po): 43.4 ng·h/mL
Cmax ([1]; in vivo, po): 4.33 ng/mL
Tmax ([1]; in vivo, po): 4.5 h
half-life ([1]; in vivo, po): 8.07 h
AUC(0-inf) ([1]; in vivo, sc): 39.9 ng·h/mL
AUC(0-t) ([1]; in vivo, sc): 37.5 ng·h/mL
Cmax ([1]; in vivo, sc): 4.28 ng/mL
Tmax ([1]; in vivo, sc): 4.5 h
half-life ([1]; in vivo, sc): 6.91 h
AUC0-inf, A/B Ratio (%) ([1]; both, in vivo): 85.2%
AUC0-t, A/B Ratio (%) ([1]; both, in vivo): 86.3%
Cmax, A/B Ratio (%) ([1]; both, in vivo): 99.0%
